How the values were obtained:
Type in all cases: in vivo, Zea mays
corn [1] = test: Ethephon applied to corn at stage V8, Nova Mutum; methomyl and pyraclostrobin+epoxyconazole added in all treatments; conditions: V8, 5 g ha^−1 a.i.
Procedure: Example 1—Effect of Growth Regulator Ethephon Applied to Corn at the Stage of Development V8
(§1) In the moment of the application, the insecticide methomyl (215 g ha^−1 a.i.) and the fungicide pyraclostrobin+epoxyconazole (99.75+37.5 g ha^−1 a.i.) were added in all treatments, including the control.

corn [2] = test: Ethephon applied to corn at stage V6, Nova Mutum; chlorantraniliprole and cyproconazole+azoxystrobin added in all treatments; conditions: V6, 5 g ha^−1 a.i.
Procedure: Example 2—Effect of Growth Regulator Ethephon Applied to Corn at the Stage of Development V6
(§2) In the moment of the application, the insecticide chlorantraniliprole (25 g ha^−1 a.i.) and the fungicide cyproconazole+azoxystrobin (24+60 g ha^−1 a.i.) were added in all treatments, including the control.

corn [3] = test: BF 428-5 applied to corn at stage V8, Nova Mutum; methomyl and pyraclostrobin+epoxyconazole added in all treatments; conditions: for Increased Yield: 100,000 plants/ha vs control at normal density
Procedure: Example 5—Effect of Growth Regulator BF 428-5 Applied to Corn at the Stage of Development V8
as §1

corn [4] = test: BF 428-5 applied to corn at stage V6, Nova Mutum; chlorantraniliprole and cyproconazole+azoxystrobin added in all treatments; conditions: for Height (shoot length): 30 DAA; for Increased Yield: 100,000 plants/ha vs control at normal density
Procedure: Example 6—Effect of Growth Regulator BF 428-5 Applied to Corn at the Stage of Development V6
as §2

**Q.** Which “Ear Diameter” value (corn [1]) does the source give for `CSC(=O)c1cccc2nnsc12` [Acybenzolar-S-methyl, acybenzolar-S-methyl] here?
**A.** Its value is 53.7 mm.

**Q.** What about the “Ear Length” value (corn [1]) of the same compound?
**A.** Its value is 26.5 cm.

**Q.** What about the Yield (corn [1]) of the same compound?
**A.** The Yield was 4815.6 kg/ha.

**Q.** And the “Height (shoot length)” value (corn [1]; 30 DAA)?
**A.** The value was 206.8 cm.

**Q.** And the “Population of corn plants 60,000 plants/ha, kg/corn plant” value (corn [1]; 60,000 plants/ha)?
**A.** The value was 0.080 kg/corn plant.

**Q.** What about the “Ear Diameter” value (corn [2]) of the same compound?
**A.** The value was 34.7 mm.

**Q.** What about the “Ear Length” value (corn [2]) of the same compound?
**A.** The value was 21.9 cm.

**Q.** What about the Yield (corn [2]) of the same compound?
**A.** Its Yield is 2662.2 kg/ha.

**Q.** And the “Height (shoot length)” value (corn [2]; 30 DAA)?
**A.** Its value is 195.2 cm.

**Q.** What about the “Population of corn plants 60,000 plants/ha, kg/corn plant” value (corn [2]; 60,000 plants/ha) of the same compound?
**A.** The value was 0.044 kg/corn plant.

**Q.** For `C[N+](C)(C)CCCl` [BF 428-05, chlormequat chloride], which “effects on the corn plant” value (corn [3]; V8) is on record?
**A.** Its value is “reduction in shoot length, increased formation of adventitious roots, strengthening of the stem, strengthening of the root system, increased ventilation in the culture, proper development of male and female inflorescences”.

**Q.** What about the “effect on length and diameter of ears of corn” value (corn [3]; V8 (Table 9)) of the same compound?
**A.** Its value is “does not reduce”.

**Q.** And the yield reduction (corn [3]; V8 (Table 9))?
**A.** The yield reduction was “no yield reduction”.

**Q.** What about the shoot length (corn [3]; V8, 30 DAA, all treatments with BF 428-5 (Table 9)) of the same compound?
**A.** The shoot length was “less than or equal to 218.8 cm”.

**Q.** What about the “Ear Diameter” value (corn [3]; V8, 42.5 g ha^−1 a.i.) of the same compound?
**A.** Its value is 54.3 mm.

**Q.** What about the “Ear Length” value (corn [3]; V8, 42.5 g ha^−1 a.i.) of the same compound?
**A.** The value was 27.8 cm.

**Q.** And the Yield (corn [3]; V8, 42.5 g ha^−1 a.i.)?
**A.** The Yield was 5762.2 kg/ha.

**Q.** What about the “Height (shoot length)” value (corn [3]; V8, 42.5 g ha^−1 a.i., 30 DAA) of the same compound?
**A.** Its value is 214.6 cm.

**Q.** And the “Population of corn plants 60,000 plants/ha, kg/corn plant” value (corn [3]; V8, 42.5 g ha^−1 a.i.)?
**A.** The value was 0.096 kg/corn plant.

**Q.** What about the “Population of corn plants 100,000 plants/ha, kg/corn plant” value (corn [3]; V8, 42.5 g ha^−1 a.i.) of the same compound?
**A.** Its value is 0.096 kg/corn plant.

**Q.** What about the “Yield estimates 100,000 plants/ha” value (corn [3]; V8, 42.5 g ha^−1 a.i.) of the same compound?
**A.** The value was 9603.7 kg/ha.

**Q.** What about the “Increased Yield” value (corn [3]; V8, 42.5 g ha^−1 a.i.) of the same compound?
**A.** Its value is 89.2%.

**Q.** What about the “Ear Diameter” value (corn [3]; V8, 85 g ha^−1 a.i.) of the same compound?
**A.** The value was 53.9 mm.

**Q.** What about the “Ear Length” value (corn [3]; V8, 85 g ha^−1 a.i.) of the same compound?
**A.** Its value is 27.3 cm.

**Q.** And the Yield (corn [3]; V8, 85 g ha^−1 a.i.)?
**A.** The Yield was 4355.6 kg/ha.

**Q.** And the “Height (shoot length)” value (corn [3]; V8, 85 g ha^−1 a.i., 30 DAA)?
**A.** Its value is 218.8 cm.

**Q.** What about the “Population of corn plants 60,000 plants/ha, kg/corn plant” value (corn [3]; V8, 85 g ha^−1 a.i.) of the same compound?
**A.** Its value is 0.073 kg/corn plant.

**Q.** What about the “Population of corn plants 100,000 plants/ha, kg/corn plant” value (corn [3]; V8, 85 g ha^−1 a.i.) of the same compound?
**A.** Its value is 0.073 kg/corn plant.

**Q.** What about the “Yield estimates 100,000 plants/ha” value (corn [3]; V8, 85 g ha^−1 a.i.) of the same compound?
**A.** Its value is 7259.3 kg/ha.

**Q.** What about the “Increased Yield” value (corn [3]; V8, 85 g ha^−1 a.i.) of the same compound?
**A.** Its value is 43.0%.

**Q.** And the “Ear Diameter” value (corn [3]; V8, 127.5 g ha^−1 a.i.)?
**A.** The value was 54.2 mm.

**Q.** And the “Ear Length” value (corn [3]; V8, 127.5 g ha^−1 a.i.)?
**A.** The value was 27.2 cm.

**Q.** And the Yield (corn [3]; V8, 127.5 g ha^−1 a.i.)?
**A.** The Yield was 4968.9 kg/ha.

**Q.** What about the “Height (shoot length)” value (corn [3]; V8, 127.5 g ha^−1 a.i., 30 DAA) of the same compound?
**A.** Its value is 217.8 cm.

**Q.** And the “Population of corn plants 60,000 plants/ha, kg/corn plant” value (corn [3]; V8, 127.5 g ha^−1 a.i.)?
**A.** The value was 0.083 kg/corn plant.

**Q.** What about the “Population of corn plants 100,000 plants/ha, kg/corn plant” value (corn [3]; V8, 127.5 g ha^−1 a.i.) of the same compound?
**A.** The value was 0.083 kg/corn plant.

**Q.** And the “Yield estimates 100,000 plants/ha” value (corn [3]; V8, 127.5 g ha^−1 a.i.)?
**A.** Its value is 8281.5 kg/ha.

**Q.** What about the “Increased Yield” value (corn [3]; V8, 127.5 g ha^−1 a.i.) of the same compound?
**A.** Its value is 63.2%.

**Q.** What about the yield increases (corn [3]; V8, estimation at 100,000 plants per hectare vs control at normal density of sowing (Table 10)) of the same compound?
**A.** The yield increases was “more than 43%”.

**Q.** And the “effects on the corn plant” value (corn [4]; V6)?
**A.** Its value is “reduction in shoot length, increased formation of adventitious roots, strengthening of the stem, strengthening of the root system, increased ventilation in the culture, proper development of male and female inflorescences”.

**Q.** And the “effect on length and diameter of ears of corn” value (corn [4]; V6 (Table 11))?
**A.** Its value is “does not reduce”.

**Q.** And the yield reduction (corn [4]; V6 (Table 11))?
**A.** The yield reduction was “no yield reduction”.

**Q.** And the “Ear Diameter” value (corn [4]; V6, 42.5 g ha^−1 a.i.)?
**A.** The value was 38.4 mm.

**Q.** And the “Ear Length” value (corn [4]; V6, 42.5 g ha^−1 a.i.)?
**A.** The value was 23.9 cm.

**Q.** What about the Yield (corn [4]; V6, 42.5 g ha^−1 a.i.) of the same compound?
**A.** Its Yield is 3126.7 kg/ha.

**Q.** What about the “Height (shoot length)” value (corn [4]; V6, 42.5 g ha^−1 a.i.) of the same compound?
**A.** The value was 206.0 cm.

**Q.** And the “Population of corn plants 60,000 plants/ha, kg/corn plant” value (corn [4]; V6, 42.5 g ha^−1 a.i.)?
**A.** The value was 0.052 kg/corn plant.

**Q.** And the “Population of corn plants 100,000 plants/ha, kg/corn plant” value (corn [4]; V6, 42.5 g ha^−1 a.i.)?
**A.** The value was 0.052 kg/corn plant.

**Q.** What about the “Yield estimates 100,000 plants/ha” value (corn [4]; V6, 42.5 g ha^−1 a.i.) of the same compound?
**A.** Its value is 5211.2 kg/ha.

**Q.** And the “Increased Yield” value (corn [4]; V6, 42.5 g ha^−1 a.i.)?
**A.** The value was 80.5%.

**Q.** And the “Ear Diameter” value (corn [4]; V6, 85 g ha^−1 a.i.)?
**A.** Its value is 37.0 mm.

**Q.** What about the “Ear Length” value (corn [4]; V6, 85 g ha^−1 a.i.) of the same compound?
**A.** Its value is 22.9 cm.

**Q.** What about the Yield (corn [4]; V6, 85 g ha^−1 a.i.) of the same compound?
**A.** Its Yield is 1902.2 kg/ha.

**Q.** What about the “Height (shoot length)” value (corn [4]; V6, 85 g ha^−1 a.i.) of the same compound?
**A.** The value was 205.8 cm.

**Q.** And the “Population of corn plants 60,000 plants/ha, kg/corn plant” value (corn [4]; V6, 85 g ha^−1 a.i.)?
**A.** The value was 0.032 kg/corn plant.

**Q.** And the “Population of corn plants 100,000 plants/ha, kg/corn plant” value (corn [4]; V6, 85 g ha^−1 a.i.)?
**A.** The value was 0.032 kg/corn plant.

**Q.** What about the “Yield estimates 100,000 plants/ha” value (corn [4]; V6, 85 g ha^−1 a.i.) of the same compound?
**A.** The value was 3170.3 kg/ha.

**Q.** What about the “Increased Yield” value (corn [4]; V6, 85 g ha^−1 a.i.) of the same compound?
**A.** The value was 9.8%.

**Q.** What about the “Ear Diameter” value (corn [4]; V6, 127.5 g ha^−1 a.i.) of the same compound?
**A.** Its value is 37.9 mm.

**Q.** What about the “Ear Length” value (corn [4]; V6, 127.5 g ha^−1 a.i.) of the same compound?
**A.** Its value is 21.5 cm.

**Q.** And the Yield (corn [4]; V6, 127.5 g ha^−1 a.i.)?
**A.** The Yield was 2500.0 kg/ha.

**Q.** And the “Height (shoot length)” value (corn [4]; V6, 127.5 g ha^−1 a.i.)?
**A.** The value was 200.3 cm.

**Q.** And the “Population of corn plants 60,000 plants/ha, kg/corn plant” value (corn [4]; V6, 127.5 g ha^−1 a.i.)?
**A.** The value was 0.042 kg/corn plant.

**Q.** What about the “Population of corn plants 100,000 plants/ha, kg/corn plant” value (corn [4]; V6, 127.5 g ha^−1 a.i.) of the same compound?
**A.** The value was 0.042 kg/corn plant.

**Q.** And the “Yield estimates 100,000 plants/ha” value (corn [4]; V6, 127.5 g ha^−1 a.i.)?
**A.** Its value is 4166.7 kg/ha.

**Q.** And the “Increased Yield” value (corn [4]; V6, 127.5 g ha^−1 a.i.)?
**A.** The value was 44.3%.

**Q.** What about the yield increases (corn [4]; V6, estimation at 100,000 plants per hectare vs control at normal density of sowing (Table 12)) of the same compound?
**A.** The yield increases was “more than 9.8%”.

Reference: patent US11357229B2, “Composition, uses and preparation process thereof, as well as method to ensure high corn crop yield” (priority 2011, dated 2022)
